Measurements from US20030109584A1, “Stabilized pharmaceutically effective composition and pharmaceutical formulation comprising the same” (priority 2000, published 2003).

Tests used:
Assay type in all cases: physicochemical
[1] = Stability of pravastatin (lactone and impurity formation) in buffers of pH 7 to 11; details: buffers pH 7 to 11 (phosphate, citrate, borate); 1, 5, 13 and 28 days
Description: The third observation is that a sufficient stabilization of the active substance is already obtained at a pH of at least 7.0, but a beneficially high stability is effected at a pH of at least 8.0. We have noticed that at a pH below 8 the formation of lactone has occurred and also the amount of other impurities has increased. The presence of humidity in the air and a carbon dioxide-rich atmosphere makes the negative effect of a low pH even stronger. This is illustrated by the following experiment: Pravastatin was dissolved in different buffers with the pH in a range between 7 and 11 (F=phosphate, C=citrate, B=borate). The occurrence of pravastatin in lactone form and the formation of different degradation products (impurities) were measured after 1, 5, 13 and 28 days.

[2] = pH of pravastatin sodium crystals kept in normal air, nitrogen or carbon dioxide atmosphere
Experimental: Another observation was that carbon dioxide from the air may irreversibly and reversibly bind to the active substance and can cause a drop of pH. This is illustrated by the following experiment: 5 g of pravastatin sodium were dissolved in 30 ml of methanol, the pH was adjusted to 10 with 3% aqueous solution of NaOH. 400 ml of ethylacetate were added and the crystals of pravastatin sodium were formed. Crystals were filtered and dried and then put into three different atmospheres: normal air, nitrogen atmosphere and carbon dioxide atmosphere. In normal air and in the nitrogen atmosphere the pH remained the same during a period of 24 hours (normal air: pH 9.2, nitrogen: pH 9.5), but in the carbon dioxide atmosphere the pH dropped in the first two minutes from 9.2 to 6.9. After 12 minutes the pH was 6.6 and after 1 hour the pH was 6.5. After that, the pH remained constant.

[3] = pH value of 1% or 5% aqueous solution of the active substance, after preparing and after 1 week on air
Experimental: Within the scope of this invention the term “which will provide a pH value” means a pH value that is measured in an aqueous solution or dispersion of an active substance or of a mixture of the active substance with the buffering substance or of a stabilized active substance according to this invention or of a pharmaceutical formulation or of a stabilized pharmaceutical formulation of an active substance obtained according to this invention. The concentration of such an aqueous solution or dispersion is 1% or 5%. The measurement procedure is described in Examples 1-11.

pH at which formation of lactone occurred and other impurities increased [1]: below 8
pH in carbon dioxide atmosphere after 12 minutes ([2]; carbon dioxide atmosphere, 12 minutes): 6.6
pH in carbon dioxide atmosphere after 1 hour ([2]; carbon dioxide atmosphere, 1 hour, constant afterwards): 6.5
pH in carbon dioxide atmosphere after two minutes ([2]; carbon dioxide atmosphere, first two minutes): 6.9
pH at start in carbon dioxide atmosphere ([2]; carbon dioxide atmosphere, starting value): 9.2
pH in normal air ([2]; crystals from solution adjusted to pH 10 with NaOH, normal air, remained the same during 24 hours): 9.2
pH in nitrogen atmosphere ([2]; nitrogen atmosphere, remained the same during 24 hours): 9.5
Value pH (1%) after 1 week on air atm ([3]; 1% aqueous solution, after 1 week in air atmosphere): 7.2
Value pH (1%) after preparing ([3]; 1% aqueous solution, after preparing): 7.4
Value pH (5%) after 1 week on air atm ([3]; 5% aqueous solution, after 1 week in air atmosphere): 7.6
Value pH (5%) after preparing ([3]; 5% aqueous solution, after preparing): 7.7
SMILES: CC[C@H](C)C(=O)O[C@H]1C[C@H](O)C=C2C=C[C@H](C)[C@H](CC[C@@H](O)C[C@@H](O)CC(=O)O)[C@H]21 [Pravastatin Sodium]
